≈ marks a conversion by molar mass, not a printed value.
What was measured:
[1] = tested on: Fusobacterium necrophorum; assay: MIC, anaerobic bacteria; assay type: cell-based
[2] = tested on: Fusobacterium nucleatum; assay: MIC, anaerobic bacteria; assay type: cell-based
[3] = tested on: Clostridium ramosum; assay: MIC, anaerobic bacteria; assay type: cell-based; settings: Thomasclavelia ramosa
[4] = Solubility
[5] = tested on: Streptococcus pyogenes; assay: Disc-plate MIC; settings: Disc-Plate Method
[6] = Electrometric titration; assay type: physicochemical; settings: 66 percent dimethylformamide in water
Description: Antibiotic A-2315 factor A is a white, amorphous solid, having a molecular weight of 503.2638, as determined by mass spectrometry, and an elemental analysis as follows: 61.51 percent carbon, 7.51 percent hydrogen, 8.69 percent nitrogen, and 21.53 percent oxygen. […] The specific rotation of A-2315 factor A is -132° when determined at a temperature of 27°C. in methanol in which the concentration of the antibiotic is 0.375 percent on a weight per volume basis.
Antibiotic A-2315 factor B is a white, amorphous solid, having a molecular weight of 501, as determined by mass spectrometry, and an elemental analysis as follows: 61.81 percent carbon, 7.02 percent hydrogen, 8.81 percent nitrogen, and 21.42 percent oxygen.
Antibiotic A-2315 factor C is a white, amorphous solid, having a molecular weight of 487, as determined by mass spectrometry, and an elemental analysis as follows: 61.04 percent carbon, 7.00 percent hydrogen, 7.96 percent nitrogen, and 22.61 percent oxygen. Based on elemental analysis and molecular weight, an empirical formula of C25 H33 N3 O7 is assigned to factor C.

[7] = tested on: Veillonella alcalescens; assay: MIC, anaerobic bacteria; assay type: cell-based; settings: Veillonella parvula
[8] = tested on: Mycoplasma gallisepticum; assay: Activity in chicks infected with Mycoplasma gallisepticum; assay type: in vivo, chickens
Description: The antibiotic factor was prepared in polyethylene glycol 200 and injected subcutaneously in the neck.

[9] = tested on: Staphylococcus aureus 3055; assay: Disc-plate MIC; settings: Disc-Plate Method; benzylpenicillin-susceptible
[10] = tested on: Streptococcus faecalis; assay: Agar-dilution MIC; assay type: cell-based; settings: Enterococcus faecalis; Agar-Dilution Method
[11] = tested on: Streptococcus mutans; assay: Broth-dilution growth inhibition of cariogenic organism; assay type: cell-based; settings: read-out: growth inhibiting concentration
Description: (§1) In another aspect of the present invention, the A-2315 antibiotics have the ability to inhibit the growth of microorganisms contributing to the development of periodontal disease. In broth-dilution tests, A-2315 factor A inhibits the growth of the cariogenic organism Streptococcus mutans at concentrations of 1-2 μg/ml and inhibits the growth of cariogenic filamentous rods at a concentration as low as 0.1 μg/ml.

[12] = tested on: cariogenic filamentous rods; assay: as above; assay type: cell-based; settings: read-out: growth inhibiting concentration (as low as)
Description: as §1

[13] = tested on: Salmonella typhimurium; assay: Agar-dilution MIC; assay type: cell-based; settings: Salmonella enterica, Agar-Dilution Method
[14] = tested on: bean rust (Uromyces phaseoli var. typica); assay: Plant-fungicidal activity on bean plants; assay type: in vivo; settings: 400 ppm
Description: In yet another aspect of the invention, the A-2315 antibiotics are useful as plant-fungicidal agents.

[15] = tested on: Ruminal VFA; assay: Ruminal volatile fatty acids in vitro; set-up: species or system steer; settings: 16 hours, 38°C
Description: Rumen fluid is obtained from a steer with a surgically-installed fistula opening into the rumen. The steer is maintained on a high-grain ration, the composition of which follows:
A sample of rumen fluid is strained through four layers of cheesecloth, and the filtrate is collected. The particulate matter retained by the cheesecloth is resuspended in enough physiological buffer to return it to the original volume of the rumen fluid, and this suspension is strained again. The buffer used has the following composition:
The two filtrates are combined and allowed to stand until particulate matter separates to the top. The clear layer is separated, diluted with the same buffer (1:1) and then adjusted to pH 7.0.
The diluted rumen fluid (10 ml) is placed in a 25-ml flask with 40 mg of the above-described feed, an additional 5 mg of soybean protein, and the test compound. Four replicate flasks are used per treatment. Two sets of four control flasks each are also employed. A zero-time control and an incubated 16-hour control are used. All test flasks are incubated for 16 hours at 38°C. After incubation, the pH is measured; and 25 percent metaphosphoric acid (2 ml) is added to each flask. The samples are allowed to settle, and the supernatant is analyzed by gas chromatography for propionate, acetate, butyrate compounds.
Test-compound results are statistically compared with control results.

[16] = tested on: Streptococcus pyogenes; assay: Protection of mice against experimental bacterial infection; assay type: in vivo; settings: sc, subcutaneous, two doses
Description: When two doses each of A-2315 factors were administered to mice in illustrative infections, the ED50 values [effective dose in mg/kg to protect 50 percent of the test aninals; see Warren Wick, et al., J. Bacteriol.

[17] = tested on: Clostridium septicum; assay: MIC, anaerobic bacteria; assay type: cell-based
[18] = tested on: Bacteriodes fragilis ssp. vulgates; assay: MIC, anaerobic bacteria; assay type: cell-based
[19] = 3 mg./chick, subcutaneous, at 14 Days, infected controls 7/7
[20] = surviving infected chickens, subcutaneous
[21] = 0.1 mcg per ml diluted rumen fluid
[22] = 0.3 mcg per ml diluted rumen fluid
[23] = 1.0 mcg per ml diluted rumen fluid

For `CC1=CC(O)CC(O)Cc2nc(co2)C(=O)NC(C)C(=O)OC(C(C)C)C(C)C=CC(=O)NCC=C1` (stereo not drawn) [Factor A], which MIC [1] is on record?
Its MIC is 16 µg/mL (≈ 31.8 µM).

What about the MIC [2] of the same molecule?
Its MIC is 128 µg/mL (≈ 254 µM).

And the MIC [3]?
The MIC was 8 µg/mL (≈ 15.9 µM).

What about the “solubility in organic solvents” value [4] of the same molecule?
The value was “soluble”.

What about the solubility in water [4] of the same molecule?
Its solubility in water is “only slightly soluble”.

And the MIC [5]?
Its MIC is 0.012 μg/disc.

What about the titratable groups [6] of the same molecule?
The titratable groups was “did not indicate the presence of titratable groups”.

What about the MIC [7] of the same molecule?
The MIC was 16 µg/mL (≈ 31.8 µM).

And the “No. Died / No. in Group” value ([8]; 3 mg./chick, subcutaneous in neck, infected)?
The value was 12/20.

And the “Dead Chicks: Air-Sac Lesions” value ([8]; 3 mg./chick, subcutaneous, 3/9 not examined due to decomposition)?
Its value is 9/9.

And the “Survivors: Air-Sac Lesions” value [8, 19]?
The value was 0/8.

What about the “Survivors: MG Antibody” value [8, 19] of the same molecule?
Its value is 8/8.

And the “Survivors: Average Weight” value ([8]; 3 mg./chick, subcutaneous, at 14 Days, infected controls 100 gm., normal controls 214 gm.)?
Its value is 133 gm.

What about the signs of toxicity ([8]; infected chickens, in polyethylene glycol 200, subcutaneous in the neck) of the same molecule?
Its signs of toxicity is “No signs of toxicity were seen, except for slight hemorrhage in the neck area in some of the treated chicks that died early”.

What about the “incidence of air-sac lesions” value [8, 20] of the same molecule?
The value was “lowered incidence of air-sac lesions”.

What about the weight advantage [8, 20] of the same molecule?
The weight advantage was “some weight advantage”.

What about the MIC [9] of the same molecule?
Its MIC is 0.025 μg/disc.

And the MIC [10]?
Its MIC is 1.56 µg/mL (≈ 3.1 µM).

And the MIC [11]?
The MIC was 1 to 2 µg/mL (≈ 1.99 to 3.97 µM).

What about the MIC [12] of the same molecule?
Its MIC is 0.1 µg/mL (≈ 0.199 µM).

And the MIC [13]?
The MIC was over 100 µg/mL.

What about the “protection of bean plants” value [14] of the same molecule?
The value was “protected”.

What about the phytotoxicity ([14]; bean plants) of the same molecule?
Its phytotoxicity is “Only slight phytotoxicity”.

What about the “Acetate, ratio of VFA concentration treated to control” value (“Acetate, ratio” for short) [15, 21] of the same molecule?
Its value is 0.97.

And the “Butyrate, ratio of VFA concentration treated to control” value (shortened to “Butyrate, ratio”) [15, 21]?
The value was 1.01.

What about the “Propionate, ratio of VFA concentration treated to control” value (“Propionate, ratio” for short) [15, 21] of the same molecule?
The value was 1.07.

What about the “Total VFA, ratio of concentration treated to control” value (from here on “Total VFA, ratio”) [15, 21] of the same molecule?
The value was 1.04.

And the “Acetate, ratio” value [15, 22]?
The value was 0.95.

And the “Butyrate, ratio” value [15, 22]?
Its value is 1.00.

And the “Propionate, ratio” value [15, 22]?
The value was 1.08.

What about the “Total VFA, ratio” value [15, 22] of the same molecule?
Its value is 1.07.

What about the “Acetate, ratio” value [15, 23] of the same molecule?
Its value is 0.95.

What about the “Butyrate, ratio” value [15, 23] of the same molecule?
The value was 1.04.

What about the “Propionate, ratio” value [15, 23] of the same molecule?
The value was 1.15.

And the “Total VFA, ratio” value [15, 23]?
Its value is 1.05.

What about the ED50 ([16]; Test I, challenge 10,000 × LD50 (ip)) of the same molecule?
Its ED50 is 83 mg/kg.

What about the ED50 ([16]; Test II) of the same molecule?
The ED50 was 27.4 mg/kg.

What about the MIC [17] of the same molecule?
The MIC was 32 µg/mL (≈ 63.5 µM).

What about the MIC [18] of the same molecule?
The MIC was 64 µg/mL (≈ 127 µM).

Source: patent US3968204A, “Antibiotic A-2315” (priority 1975, dated 1976)
